Test results taken from patent US11590139B2, “Substituted aminopurine compounds, compositions thereof, and methods of treatment therewith” (Signal Pharmaceuticals, LLC, priority 2014, dated 2023).

Test system: Lox-IMVI melanoma cell line
Assay: Lox-IMVI anti-proliferative assay (growth inhibition, Cell Titer-Glo)
Format: cell-based, human
Conditions: Homo sapiens; Lox-IMVI anti-proliferative assay, IC50 activity level; read-out: Activity
Procedure, shortened: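 Viability read by ATP luminescence (Cell Titer-Glo) at t0 and after 72 h at 37 °C, 5% CO2, with normalisation to DMSO-treated cells. Compound tested at 0.5 nM–10 μM in 3-fold, 10-point series (0.2% DMSO final) on Lox-IMVI in RPMI+10% FBS; IC50 by 4-parameter sigmoidal fit.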

Row | SMILES | IC50
1 | NC(=O)[C@H]1CC[C@@H](n2c(Nc3c(F)cc(Cl)cc3F)nc3cnc(N[C@@H]4CCO[C@H](CO)C4)nc32)CC1 [Example 445, (1S,4s)-4-(8-(4-chloro-2,6-difluorophenylamino)-2-((2S,4R)-2-(hydroxymethyl)tetrahydro-2H-pyran-4-ylamino)-9H-purin-9-yl)cyclohexanecarboxamide] | 0.25 to 0.5 µM
2 | NC(=O)[C@H]1CC[C@@H](n2c(Nc3c(F)cc(F)cc3F)nc3cnc(N[C@@H]4CCO[C@H](CO)C4)nc32)CC1 [Example 446, (1S,4s)-4-(2-((2S,4R)-2-(hydroxymethyl)tetrahydro-2H-pyran-4-ylamino)-8-(2,4,6-trifluorophenylamino)-9H-purin-9-yl)cyclohexanecarboxamide] | > 1 µM
3 | N#Cc1ccc(F)c(Nc2nc3cnc(NC4CCOCC4)nc3n2[C@H]2CC[C@@H](C(N)=O)CC2)c1F [Example 447, (1s,4s)-4-(8-(3-cyano-2,6-difluorophenylamino)-2-(tetrahydro-2H-pyran-4-ylamino)-9H-purin-9-yl)cyclohexanecarboxamide] | > 1 µM
4 | N#Cc1cc(F)c(Nc2nc3cnc(N[C@H]4CCCC[C@H](O)C4)nc3n2[C@H]2CC[C@@H](C(N)=O)CC2)c(Cl)c1 [Example 448, (1R,4s)-4-(8-(2-chloro-4-cyano-6-fluorophenylamino)-2-((1S,3S)-3-hydroxycycloheptylamino)-9H-purin-9-yl)cyclohexanecarboxamide] | > 1 µM
5 | NC(=O)[C@H]1CC[C@@H](n2c(Nc3c(Cl)cc(Cl)cc3Cl)nc3cnc(NCC(F)(F)CO)nc32)CC1 [Example 450, (1s,4s)-4-(2-(2,2-difluoro-3-hydroxypropylamino)-8-(2,4,6-trichlorophenylamino)-9H-purin-9-yl)cyclohexanecarboxamide] | > 1 µM
6 | NC(=O)[C@H]1CC[C@@H](n2c(Nc3c(F)cc(Cl)cc3Cl)nc3cnc(NCC(F)(F)CO)nc32)CC1 [Example 451, (1s,4s)-4-(8-(2,4-dichloro-6-fluorophenylamino)-2-(2,2-difluoro-3-hydroxypropylamino)-9H-purin-9-yl)cyclohexanecarboxamide] | > 1 µM
7 | NC(=O)[C@H]1CC[C@@H](n2c(Nc3c(Cl)cc(F)cc3Cl)nc3cnc(NCC(F)(F)CO)nc32)CC1 [Example 452, (1s,4s)-4-(8-(2,6-dichloro-4-fluorophenylamino)-2-(2,2-difluoro-3-hydroxypropylamino)-9H-purin-9-yl)cyclohexanecarboxamide] | > 1 µM
8 | NC(=O)[C@H]1CC[C@@H](n2c(Nc3c(F)cc(Cl)cc3F)nc3cnc(NCC(F)(F)CO)nc32)CC1 [Example 453, (1s,4s)-4-(8-(4-chloro-2,6-difluorophenylamino)-2-(2,2-difluoro-3-hydroxypropylamino)-9H-purin-9-yl)cyclohexanecarboxamide] | > 1 µM
9 | N#Cc1cc(F)c(Nc2nc3cnc(N[C@@H]4CCC[C@H](O)C4)nc3n2[C@H]2CC[C@@H](C(N)=O)CC2)c(Cl)c1 [Example 456, (1S,4s)-4-(8-(2-chloro-4-cyano-6-fluorophenylamino)-2-((1R,3S)-3-hydroxycyclohexylamino)-9H-purin-9-yl)cyclohexanecarboxamide] | 0.5 to 1 µM
10 | N#Cc1cc(F)c(Nc2nc3cnc(N[C@@H]4CCC[C@H](O)C4)nc3n2[C@H]2CC[C@@H](C(N)=O)CC2)c(F)c1 [Example 457, (1S,4s)-4-(8-(4-cyano-2,6-difluorophenylamino)-2-((1R,3S)-3-hydroxycyclohexylamino)-9H-purin-9-yl)cyclohexanecarboxamide] | > 1 µM
11 | NC(=O)[C@H]1CC[C@@H](n2c(Nc3c(F)cc(F)cc3F)nc3cnc(N[C@H]4CCC[C@H](O)C4)nc32)CC1 [Example 458, (1R,4s)-4-(2-((1S,3S)-3-hydroxycyclohexylamino)-8-(2,4,6-trifluorophenylamino)-9H-purin-9-yl)cyclohexanecarboxamide] | > 1 µM
12 | NC(=O)[C@H]1CC[C@@H](n2c(Nc3c(F)cc(F)cc3Cl)nc3cnc(N[C@H]4CCC[C@H](O)C4)nc32)CC1 [Example 459, (1R,4s)-4-(8-(2-chloro-4,6-difluorophenylamino)-2-((1S,3S)-3-hydroxycyclohexylamino)-9H-purin-9-yl)cyclohexanecarboxamide] | > 1 µM
13 | NC(=O)[C@H]1CC[C@@H](n2c(Nc3c(F)cc(Cl)cc3F)nc3cnc(N[C@H]4CCC[C@H](O)C4)nc32)CC1 [Example 460, (1R,4s)-4-(8-(4-chloro-2,6-difluorophenylamino)-2-((1S,3S)-3-hydroxycyclohexylamino)-9H-purin-9-yl)cyclohexanecarboxamide] | > 1 µM
14 | NC(=O)[C@H]1CC[C@@H](n2c(Nc3ccc(Cl)c(F)c3F)nc3cnc(N[C@H]4CCC[C@H](O)C4)nc32)CC1 [Example 463, (1R,4s)-4-(8-(4-chloro-2,3-difluorophenylamino)-2-((1S,3S)-3-hydroxycyclohexylamino)-9H-purin-9-yl)cyclohexanecarboxamide] | > 1 µM
15 | NC(=O)[C@H]1CC[C@@H](n2c(Nc3cc(F)c(Cl)cc3F)nc3cnc(N[C@H]4CCC[C@H](O)C4)nc32)CC1 [Example 465, (1R,4s)-4-(8-(4-chloro-2,5-difluorophenylamino)-2-((1S,3S)-3-hydroxycyclohexylamino)-9H-purin-9-yl)cyclohexanecarboxamide] | > 1 µM
16 | NC(=O)[C@H]1CC[C@@H](n2c(Nc3c(F)cc(Cl)cc3Cl)nc3cnc(N[C@H](CO)C(F)(F)F)nc32)CC1 [Example 471, (1S,4s)-4-(8-(2,4-dichloro-6-fluorophenylamino)-2-((R)-1,1,1-trifluoro-3-hydroxypropan-2-ylamino)-9H-purin-9-yl)cyclohexanecarboxamide] | > 1 µM
17 | N#Cc1cc(Cl)c(Nc2nc3cnc(N[C@H](CO)C(F)(F)F)nc3n2[C@H]2CC[C@@H](C(N)=O)CC2)c(Cl)c1 [Example 472, (1S,4s)-4-(8-(2,6-dichloro-4-cyanophenylamino)-2-((R)-1,1,1-trifluoro-3-hydroxypropan-2-ylamino)-9H-purin-9-yl)cyclohexanecarboxamide] | > 1 µM

Continued, values first:

Row | IC50 | SMILES
18 | > 1 µM | N#Cc1cc(Cl)c(Nc2nc3cnc(N[C@H]4CCCC[C@H](O)C4)nc3n2[C@H]2CC[C@@H](C(N)=O)CC2)c(Cl)c1 [Example 449, (1R,4s)-4-(8-(2,6-dichloro-4-cyanophenylamino)-2-((1S,3S)-3-hydroxycycloheptylamino)-9H-purin-9-yl)cyclohexanecarboxamide]
19 | 0.5 to 1 µM | NC(=O)[C@H]1CC[C@@H](n2c(Nc3c(Cl)cc(C(F)(F)F)cc3Cl)nc3cnc(N[C@@H]4CCC[C@H](O)C4)nc32)CC1 [Example 454, (1S,4s)-4-(8-(2,6-dichloro-4-(trifluoromethyl)phenylamino)-2-((1R,3S)-3-hydroxycyclohexylamino)-9H-purin-9-yl)cyclohexanecarboxamide]
20 | < 0.25 µM | N#Cc1cc(Cl)c(Nc2nc3cnc(N[C@@H]4CCC[C@H](O)C4)nc3n2[C@H]2CC[C@@H](C(N)=O)CC2)c(Cl)c1 [Example 455, (1S,4s)-4-(8-(2,6-dichloro-4-cyanophenylamino)-2-((1R,3S)-3-hydroxycyclohexylamino)-9H-purin-9-yl)cyclohexanecarboxamide]
21 | > 1 µM | NC(=O)[C@H]1CC[C@@H](n2c(Nc3c(Cl)cc(Cl)cc3Cl)nc3cnc(N[C@H]4CCC[C@H](O)C4)nc32)CC1 [Example 461, (1R,4s)-4-(2-((1S,3S)-3-hydroxycyclohexylamino)-8-(2,4,6-trichlorophenylamino)-9H-purin-9-yl)cyclohexanecarboxamide]
22 | > 1 µM | NC(=O)[C@H]1CC[C@@H](n2c(Nc3c(Cl)cc(F)cc3Cl)nc3cnc(N[C@H]4CCC[C@H](O)C4)nc32)CC1 [Example 462, (1R,4s)-4-(8-(2,6-dichloro-4-fluorophenylamino)-2-((1S,3S)-3-hydroxycyclohexylamino)-9H-purin-9-yl)cyclohexanecarboxamide]
23 | 0.5 to 1 µM | NC(=O)[C@H]1CC[C@@H](n2c(Nc3c(F)cc(Cl)cc3Cl)nc3cnc(N[C@H]4CCC[C@H](O)C4)nc32)CC1 [Example 464, (1R,4s)-4-(8-(2,4-dichloro-6-fluorophenylamino)-2-((1S,3S)-3-hydroxycyclohexylamino)-9H-purin-9-yl)cyclohexanecarboxamide]
24 | > 1 µM | NC(=O)[C@H]1CC[C@@H](n2c(Nc3c(F)cc(F)cc3Cl)nc3cnc(N[C@@H]4CCCC[C@H]4O)nc32)CC1 [Example 466, (1S,4s)-4-(8-(2-chloro-4,6-difluorophenylamino)-2-((1R,2R)-2-hydroxycyclohexylamino)-9H-purin-9-yl)cyclohexanecarboxamide]
25 | > 1 µM | NC(=O)[C@H]1CC[C@@H](n2c(Nc3c(F)cc(Cl)cc3F)nc3cnc(N[C@@H]4CCCC[C@H]4O)nc32)CC1 [Example 467, (1S,4s)-4-(8-(4-chloro-2,6-difluorophenylamino)-2-((1R,2R)-2-hydroxycyclohexylamino)-9H-purin-9-yl)cyclohexanecarboxamide]
26 | > 1 µM | NC(=O)[C@H]1CC[C@@H](n2c(Nc3c(Cl)cc(Cl)cc3Cl)nc3cnc(N[C@@H]4CCCC[C@H]4O)nc32)CC1 [Example 468, (1S,4s)-4-(2-((1R,2R)-2-hydroxycyclohexylamino)-8-(2,4,6-trichlorophenylamino)-9H-purin-9-yl)cyclohexanecarboxamide]
27 | > 1 µM | NC(=O)[C@H]1CC[C@@H](n2c(Nc3c(Cl)cc(F)cc3Cl)nc3cnc(N[C@@H]4CCCC[C@H]4O)nc32)CC1 [Example 469, (1S,4s)-4-(8-(2,6-dichloro-4-fluorophenylamino)-2-((1R,2R)-2-hydroxycyclohexylamino)-9H-purin-9-yl)cyclohexanecarboxamide]
28 | > 1 µM | NC(=O)[C@H]1CC[C@@H](n2c(Nc3c(F)cc(Cl)cc3Cl)nc3cnc(N[C@@H]4CCCC[C@H]4O)nc32)CC1 [Example 470, (1S,4s)-4-(8-(2,4-dichloro-6-fluorophenylamino)-2-((1R,2R)-2-hydroxycyclohexylamino)-9H-purin-9-yl)cyclohexanecarboxamide]
